Experimental data published in ChEMBL document CHEMBL4616680, “Shedding X-ray Light on the Role of Magnesium in the Activity of Mycobacterium tuberculosis Salicylate Synthase (MbtI) for Drug Design” (J Med Chem, 2020).

Tested on: MRC5
Assay: Cytotoxicity in human MRC5 cells
Assay type: cell-based

## N#Cc1cccc(-c2ccc(C(=O)O)o2)c1
  IC50: > 100 µM
